What all share (assay type): in vivo
Data set [1] concerns Puccinia recondita tritici (leaf rust). The data set can be described thus: Test 1 greenhouse foliar spray screen, leaf rust on wheat. Conditions: Puccinia recondita, foliar, Test 1, foliar spray on wheat; disease control rating at 400 ppm / 100 ppm.
The next data set has as its system corn rootworm. Put plainly: Mite/insect screen, CRW. The conditions noted are these: percent mortality, read-out: CRW RESULTS %; for mortality at 12 ppm: CRW rate 12.00 ppm; for mortality at 24 ppm: CRW rate 24.00 ppm. The essentials: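 Each compound, taken up in an emulsifier-containing acetone/alcohol mixture and diluted in water to the stated concentrations, was assessed for percent kill following standard exposure times.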

Data set [2] has as its system Erysiphe graminis tritici (powdery mildew). The data set can be described thus: Test 1 greenhouse foliar spray screen, powdery mildew on wheat. The conditions noted are these: Blumeria graminis, foliar, Test 1, foliar spray on wheat; disease control rating at 400 ppm / 100 ppm; read-out: POWD MDEW.
In data set [3] the test system is melon aphids (Aphis gossypii Glover). The data set can be described thus: Mite/insect screen, MA. The conditions noted are these: Aphis gossypii, foliar, percent mortality, foliar spray on squash, read-out: MA RESULTS %; for mortality at 200 ppm: rate 200 ppm; for mortality at 400 ppm: rate 400 ppm. The gist of the method: (§1)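 Activity is expressed as percent mortality at the indicated spray concentrations. Plants are sprayed to runoff on upper and lower leaf surfaces with aqueous dilutions of an acetone/alcohol emulsifiable formulation, then dried for one hour.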

Data set [4] has as its system Pyricularia oryzae (rice blast). Put plainly: whole plant or invertebrate. Conditions: for pest or weed control at 400 ppm: Pyricularia oryzae, foliar, read-out: RICE BLAST, Test 1, foliar spray on rice, disease control rating at 400 ppm / 100 ppm.
Data set [5] concerns Pseudoperonospora cubensis (downy mildew). The data set can be described thus: Test 1 greenhouse foliar spray screen, downy mildew on squash. The conditions noted are these: Pseudoperonospora cubensis, foliar, Test 1, foliar spray on squash; disease control rating at 400 ppm / 100 ppm; read-out: DOWN MDEW.
In data set [6] the test system is Venturia inaequalis (apple scab). Put plainly: Test 1 greenhouse foliar spray screen, apple scab on apple seedling. The conditions noted are these: Venturia inaequalis; Test 1, foliar spray on apple seedling; disease control rating at 400 ppm / 100 ppm; read-out: APPL SCAB.
Data set [7] deals with Twospotted spider mites (Tetranychus urticae Koch). The data set can be described thus: Mite/insect screen, SM. Conditions: for mortality at 200 ppm / mortality at 400 ppm: Tetranychus urticae, foliar, read-out: SM RESULTS %; for mortality at 200 ppm: rate 200 ppm; for activity as miticides: summary statement in the description. The essentials:
as §1

In data set [8] the test system is Cercospora beticola (leaf spot). Put plainly: Test 1 greenhouse foliar spray screen, leaf spot on sugar beet. The conditions noted are these: Cercospora beticola; Test 1, foliar spray on sugar beet; disease control rating at 400 ppm / 100 ppm.
Data set [9] has as its system Septoria tritici (leaf blotch). Put plainly: Test 1 greenhouse foliar spray screen, leaf blotch on wheat. Conditions: Zymoseptoria tritici; Test 1, foliar spray on wheat; disease control rating at 400 ppm / 100 ppm; read-out: LEAF BLOT.
In data set [10] the test system is Botrytis cinerea (gray mold). The data set can be described thus: Test 1 greenhouse foliar spray screen, gray mold on grape berries. Conditions: Botrytis cinerea, foliar; Test 1, spray on grape berries; disease control rating at 400 ppm / 100 ppm.
The subject of data set [11] is southern armyworm (Spodopetra eridania Cramer). The data set can be described thus: Mite/insect screen, SAW. The conditions noted are these: percent mortality, foliar spray on squash; for mortality at 200 ppm / mortality at 400 ppm: Spodoptera eridania, foliar, read-out: SAW RESULTS %; for mortality at 200 ppm: rate 200 ppm. The essentials: as §1
The mark [12] stands for this setting: percent mortality, foliar spray on squash.
Setting [13] is: percent mortality, rate 400 ppm, foliar spray on squash.

SMILES strings stand for the structures.

As for `Fc1ccc2c(OCCc3ccc(-c4ccccc4)cc3)ccnc2c1` [Example 233, 4-[2-(1,1'-biphenyl)-4-ylethoxy]-7-fluoroquinoline], the pest or weed control at 400 ppm is 90 to 100% in data set [1]; 20 to 89% in data set [2]; 90 to 100% in data set [4]; 20 to 89% in data set [5]; 0 to 19% in data set [6]; 0 to 19% in [8]. In addition, the pest or weed control at 400 ppm lay in the range of 20 to 89% in data set [9] and 0 to 19% in data set [10]. Also, in the data set with corn rootworm, the mortality at 12 ppm was 0%. Besides, in the data set on corn rootworm, the mortality at 24 ppm was determined as 0%. Moreover, the values for the mortality at 200 ppm in data set [3], in [7] (setting [12]) and in data set [11] were 50%, 100% and 0%, respectively. Besides, the mortality at 400 ppm in data set [3] was determined as 80%; in data set [7] (setting [13]) it was 80%; in data set [11] (rate 400 ppm), 0%. Besides, the activity as miticides result in data set [7] was “particularly excellent activity”.
Take `Fc1ccc2c(OCCc3ccc(Cl)cc3)ccnc2c1` [Example 234, 4-[2-(4-chlorophenyl)ethoxy]-7-fluoroquinoline]: the pest or weed control at 400 ppm in [1] lay within 90 to 100%; in data set [2], 20 to 89%; in data set [4], 20 to 89%; in [5], 20 to 89%; in data set [6], 0 to 19%; in data set [8] it was 20 to 89%. For the same molecule, the pest or weed control at 400 ppm in data set [9] lay within 20 to 89%; in [10] it was 0 to 19%. In addition, in the data set on corn rootworm, the mortality at 12 ppm turned out to be 0%. The mortality at 24 ppm in the data set with corn rootworm is 0%. In addition, the mortality at 200 ppm in data set [3] was found to be 50%; in data set [7] (setting [12]), 50%; in data set [11] it was 60%. For the same molecule, the mortality at 400 ppm was 100% in data set [3], 30% in data set [7] (setting [13]) and 0% in data set [11] (rate 400 ppm).
For `Cc1ccc(CCOc2ccnc3cc(F)ccc23)cc1` [Example 235, 7-fluoro-4-[2-(4-methylphenyl)ethoxy]quinoline], the pest or weed control at 400 ppm in data set [1] is 90 to 100%; in data set [2], 20 to 89%; in [4] it was 90 to 100%; in data set [5], 20 to 89%; in [6] it was 0 to 19%; in data set [8] it was 0 to 19%. Further, the pest or weed control at 400 ppm in data set [9] is 20 to 89%; in data set [10] it was 0 to 19%. Moreover, the mortality at 12 ppm with corn rootworm was 0%. Further, in the data set with corn rootworm, the mortality at 24 ppm was 0%. Also, the results for the mortality at 200 ppm in [3], in data set [7] (setting [12]) and in data set [11] were 0%, 0% and 80%, respectively. Further, the values for the mortality at 400 ppm in [3], in data set [7] (setting [13]) and in data set [11] (rate 400 ppm) were 50%, 0% and 0%, respectively.
In the case of `Fc1ccc(CCOc2ccnc3cc(Cl)ccc23)cc1` [Example 236, 7-chloro-4-[2-(4-fluorophenyl)ethoxy]quinoline], the pest or weed control at 400 ppm in data set [1] is 20 to 89%; in [2], 90 to 100%; in [4], 0 to 19%; in data set [5], 0 to 19%; in data set [6], 0 to 19%; in [8] it was 0 to 19%. Further, the pest or weed control at 400 ppm in [9] and in [10] was 0 to 19% in each case. In addition, the mortality at 12 ppm with corn rootworm worked out at 0%. Further, the mortality at 200 ppm in data set [3], in [7] (setting [12]) and in data set [11] was 0% each time. Moreover, the mortality at 400 ppm in [7] (setting [13]) and in [11] (rate 400 ppm) was 0% in each case. Moreover, in data set [7] (setting [13]), the “SM RESULTS %” value is on record as 0%. Further, the “SAW RESULTS %” value in [11] (rate 400 ppm) worked out at 0%.
For `Fc1cccc2c(OCCc3cccc4ccccc34)ccnc12` [Example 244, 8-fluoro-4-[2-(1-naphthyl)ethoxy]quinoline], the pest or weed control at 400 ppm lay in the range of 20 to 89% in data set [1]; 20 to 89% in data set [2]; 90 to 100% in data set [4]; 20 to 89% in data set [5]; 0 to 19% in [6]; 0 to 19% in data set [8]. For the same molecule, the pest or weed control at 400 ppm in [9] is 20 to 89%; in data set [10] it was 0 to 19%. For the same molecule, the mortality at 12 ppm in the data set on corn rootworm was 0%. The mortality at 200 ppm in data set [3] came out at 40%; in data set [7] (setting [12]) it was 0%; in data set [11], 0%.
Regarding `c1csc(CCOc2ccnc3ccccc23)c1` [Example 245, 4-[2-(2-thienyl)ethoxy]quinoline], the pest or weed control at 400 ppm in data set [1] was in the range of 90 to 100%; in [2] it was 20 to 89%; in [4] it was 90 to 100%; in [5], 90 to 100%; in [6], 0 to 19%; in data set [8], 0 to 19%. The pest or weed control at 400 ppm in [9] and in [10] was 0 to 19% in each case. Further, the mortality at 12 ppm in the data set on corn rootworm is 0%. For the same molecule, the mortality at 200 ppm in data set [3], in data set [7] (setting [12]) and in data set [11] was 0% in each case.
With `Fc1cccc2c(OCCc3cccs3)ccnc12` [Example 246, 8-fluoro-4-[2-(2-thienyl)ethoxy]quinoline], the pest or weed control at 400 ppm in data set [1] lay within 90 to 100%; in data set [2] it was 90 to 100%; in [4], 90 to 100%; in data set [5] it was 90 to 100%; in data set [6], 90 to 100%; in data set [8] it was 20 to 89%. Besides, the values for the pest or weed control at 400 ppm in [9] and in [10] were 90 to 100% and 0 to 19%, respectively. In addition, in the data set on corn rootworm, the mortality at 12 ppm is 0%. The mortality at 200 ppm in data set [3], in [7] (setting [12]) and in data set [11] was 0% each time.
In the case of `Fc1cccc2c(OCCc3ccc4ccccc4c3)ccnc12` [Example 247, 8-fluoro-4-[2-(2-naphthyl)ethoxy]quinoline], the pest or weed control at 400 ppm in data set [1] lay in the range of 90 to 100%; in data set [2] it was 90 to 100%; in [4] it was 90 to 100%; in data set [5], 20 to 89%; in [6] it was 0 to 19%; in data set [8] it was 0 to 19%. The pest or weed control at 400 ppm in data set [9] was in the range of 90 to 100%; in data set [10], 0 to 19%. For the same molecule, the mortality at 12 ppm in the data set with corn rootworm is 0%. The mortality at 24 ppm in the data set with corn rootworm came to 0%. For the same molecule, the mortality at 200 ppm in data set [3] came out at 0%; in data set [7] (setting [12]), 90%; in [11] it was 20%. In addition, the values for the mortality at 400 ppm in data set [3], in [7] (setting [13]) and in [11] (rate 400 ppm) were 0%, 0% and 50%, respectively. The “activity against rice blast” value in data set [4] (summary statement in the description) was “particularly excellent activity”. In data set [7], the activity as miticides entry is recorded as “particularly excellent activity”.

These data come from patent EP0326331B1, “Substituted quinolines and cinnolines” (Dow AgroSciences LLC, priority 1988, dated 1989).
